From patent US8217035B2, “Pyrimidine derivatives used as PI-3-kinase inhibitors” (Novartis AG, priority 2006, dated 2012)
Read-outs that look alike come from different tables or passages of the source.

Experiments:
[1] = tested on: pSer473 Akt in A2780 cells; assay: pSer473 Akt assay to monitor PI3K pathway in A2780 cells (Biological Method 2, MSD); type: cell-based; settings: Homo sapiens, inhibition of Akt phosphorylation
Procedure: In this method, an assay for measuring the PI3K-mediated pSer473-Akt status after treatment with representative inhibitor compounds of the invention is described.
A2780 cells were cultured in DMEM supplemented with 10% FBS. L-glutamine, sodium pyruvate, and antibiotics. Cells were plated in the same medium at a density of 15,000 cells per well into 96 well tissue culture plates, with outside wells vacant, and allowed to adhere overnight.
Test compounds supplied in DMSO were diluted further into DMSO at 500 times the desired final concentrations before dilution into culture media to 2 times the final concentrations. Equal volumes of 2× compounds were added to the cells in 96 well plates and incubated at 37° C. for one hour. The media and compounds were then removed, the plates chilled and cells lysed in a lysis buffer (150 mM NaCl, 20 mM Tris pH 7.5, 1 mM EDTA, 1 mM EGTA, 1% Triton X-100) supplemented with phosphatase and protease inhibitors. After thorough mixing, lysates were transferred to both pSer473Akt and total Akt assay plates from Meso Scale Discovery (MSD), and incubated overnight with shaking at 4° C.
The assays were read on a SECTOR Imager 6000 instrument (Meso Scale Discovery). Ratios of the signal from pSer473Akt and total Akt assays were used to correct for any variability and the percent inhibition of pSer473Akt from the total signal seen in cells treated with compound versus DMSO alone was calculated and used to determine EC50 values for each compound.

[2] = tested on: A2780 ovarian cancer cells; assay: Cellular proliferation in A2780 cells, Cell Titer Glo (Biological Method 4); type: cell-based; settings: Homo sapiens; ovarian cancer cell line A2780
Procedure, shortened: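 A2780 cells seeded at 1,000/well in DMEM with 10% FBS, at least 2 h before compound, then exposed 72 h at 37 °C, 5% CO2. Viable cells measured by Cell Titer Glo luminescence; EC50 calculated from duplicate conditions.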

[3] = target: PI3 kinase alpha (Homo sapiens, UniProt P42336); assay: PI3K ATP depletion assay (Biological Method 1, Assay 3; KinaseGlo luminescence); type: biochemical; settings: ATP depletion assay, read-out: PI3 Kinase Alpha, IC50
Procedure, shortened: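 Compound in DMSO was mixed with 10 nM PI3 kinase and 5 μg/mL phosphatidylinositol, and the reaction was started with 2 μM ATP. It ran to about 50% ATP depletion and was stopped with KinaseGlo.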

Sequence of PI3 kinase alpha (P42336 whole entry): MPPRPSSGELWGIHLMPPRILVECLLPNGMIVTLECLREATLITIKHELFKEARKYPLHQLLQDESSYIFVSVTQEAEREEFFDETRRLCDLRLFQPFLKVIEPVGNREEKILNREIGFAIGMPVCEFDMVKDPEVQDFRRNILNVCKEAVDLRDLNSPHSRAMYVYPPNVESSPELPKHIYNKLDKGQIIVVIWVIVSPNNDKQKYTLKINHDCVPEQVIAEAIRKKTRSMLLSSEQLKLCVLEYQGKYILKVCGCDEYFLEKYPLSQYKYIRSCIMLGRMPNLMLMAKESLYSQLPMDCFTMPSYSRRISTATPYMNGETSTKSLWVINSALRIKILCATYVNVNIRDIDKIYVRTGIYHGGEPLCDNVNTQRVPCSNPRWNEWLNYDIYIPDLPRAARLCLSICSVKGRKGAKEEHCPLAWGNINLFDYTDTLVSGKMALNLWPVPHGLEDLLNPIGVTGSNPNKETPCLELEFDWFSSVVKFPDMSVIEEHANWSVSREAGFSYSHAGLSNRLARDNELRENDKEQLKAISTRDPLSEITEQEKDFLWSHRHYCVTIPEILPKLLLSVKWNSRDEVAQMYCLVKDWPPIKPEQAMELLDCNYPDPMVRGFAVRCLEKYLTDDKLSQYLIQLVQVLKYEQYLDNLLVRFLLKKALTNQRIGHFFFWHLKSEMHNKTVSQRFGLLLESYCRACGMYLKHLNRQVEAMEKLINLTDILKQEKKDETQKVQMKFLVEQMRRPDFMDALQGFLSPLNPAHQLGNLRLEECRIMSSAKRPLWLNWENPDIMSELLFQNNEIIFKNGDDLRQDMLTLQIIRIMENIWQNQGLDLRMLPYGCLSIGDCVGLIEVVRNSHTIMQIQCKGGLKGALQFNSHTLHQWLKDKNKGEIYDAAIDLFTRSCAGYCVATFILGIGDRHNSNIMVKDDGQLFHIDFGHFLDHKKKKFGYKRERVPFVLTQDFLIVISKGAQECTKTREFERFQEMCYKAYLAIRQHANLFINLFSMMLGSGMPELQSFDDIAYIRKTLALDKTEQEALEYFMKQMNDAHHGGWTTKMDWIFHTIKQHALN
Sequence of PI3 kinase alpha (P27986 whole entry partner): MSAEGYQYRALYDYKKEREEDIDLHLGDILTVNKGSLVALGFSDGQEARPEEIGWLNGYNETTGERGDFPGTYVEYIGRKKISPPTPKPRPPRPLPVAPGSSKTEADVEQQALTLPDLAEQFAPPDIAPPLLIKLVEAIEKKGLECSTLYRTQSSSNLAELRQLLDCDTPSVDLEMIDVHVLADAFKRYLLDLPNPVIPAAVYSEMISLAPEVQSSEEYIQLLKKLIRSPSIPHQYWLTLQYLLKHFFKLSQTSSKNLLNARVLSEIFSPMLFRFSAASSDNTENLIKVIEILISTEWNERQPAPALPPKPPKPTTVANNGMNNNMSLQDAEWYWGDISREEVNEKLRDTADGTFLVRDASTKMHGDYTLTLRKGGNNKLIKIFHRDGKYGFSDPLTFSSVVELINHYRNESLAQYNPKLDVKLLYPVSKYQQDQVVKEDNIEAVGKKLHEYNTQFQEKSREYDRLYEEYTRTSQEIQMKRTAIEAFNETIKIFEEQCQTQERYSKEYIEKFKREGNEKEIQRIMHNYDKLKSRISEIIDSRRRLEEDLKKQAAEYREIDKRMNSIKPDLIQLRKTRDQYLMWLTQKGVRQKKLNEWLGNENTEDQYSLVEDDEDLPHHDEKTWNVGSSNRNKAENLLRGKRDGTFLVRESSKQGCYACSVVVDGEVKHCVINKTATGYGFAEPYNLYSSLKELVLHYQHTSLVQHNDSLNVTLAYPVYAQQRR

Row | SMILES | EC50 ([1]; A2780 cells) | EC50 [2] | IC50 [3] | IC50 ([3]; Biological Method 1) | EC50 ([1]; A2780, Biological Method 2)
1 | Nc1ncc(-c2cc(Nc3cnc4ccccc4c3)nc(N3CCOCC3)n2)cn1 [Compound 1] | < 1000 nM | < 1000 nM |  |  | 
2 | CS(=O)(=O)Nc1ncccc1-c1cc(-c2ccc(N)nc2)nc(N2CCOCC2)n1 [Compound 3] | < 1000 nM | < 1000 nM | < 1000 nM |  | 
3 | Nc1cc(F)c(-c2cc(Nc3cnc4ccccc4c3)nc(N3CCOCC3)n2)cn1 [Compound 4] | < 1000 nM | < 1000 nM | < 1000 nM |  | 
4 | N#Cc1cc(N)ncc1-c1cc(Nc2cnc3ccccc3c2)nc(N2CCOCC2)n1 [Compound 5] | < 10000 nM | < 1000 nM |  |  | 
5 | COc1cccc2ncc(Nc3cc(-c4cnc(N)nc4)nc(N4CCOCC4)n3)cc12 [Compound 7] | < 1000 nM | < 1000 nM | < 1000 nM |  | 
6 | Nc1ncc(-c2cc(Oc3cccnc3)nc(N3CCOCC3)n2)cn1 [Compound 8] | < 1000 nM | < 1000 nM | < 1000 nM |  | 
7 | Nc1ncc(-c2cc(Nc3ccc(N4CCNCC4)nc3)nc(N3CCOCC3)n2)cn1 [Compound 9] | < 1000 nM | < 1000 nM | < 1000 nM |  | 
8 | CC(C)N1CCC(Oc2ccc(Nc3cc(-c4cnc(N)cc4C(F)(F)F)nc(N4CCOCC4)n3)cn2)CC1 [Compound 11] | < 1000 nM | < 1000 nM | < 1000 nM |  | 
9 | CCN(CC)Cc1cnc(Nc2cc(-c3cnc(N)cc3C(F)(F)F)nc(N3CCOCC3)n2)s1 [Compound 12] | < 1000 nM | < 10000 nM | < 1000 nM |  | 
10 | CCN(CC)CCc1csc(Nc2cc(-c3cnc(N)cc3C(F)(F)F)nc(N3CCOCC3)n2)n1 [Compound 13] | < 1000 nM | < 1000 nM | < 1000 nM |  | 
11 | Nc1ncc(-c2cc(N3CCOC(c4ccccc4)C3)nc(N3CCOCC3)n2)cn1 (stereo not drawn) [Compound 15] | < 1000 nM | < 1000 nM | < 1000 nM |  | 
12 | Nc1cc(C(F)(F)F)c(-c2cc(OC3CCOCC3)nc(N3CCOCC3)n2)cn1 [Compound 24] | < 1000 nM | < 1000 nM | < 1000 nM |  | 
13 | Nc1cc(C(F)(F)F)c(-c2cc(O[C@@H]3CCOC3)nc(N3CCOCC3)n2)cn1 [Compound 25] | < 1000 nM | < 10000 nM | < 1000 nM |  | 
14 | CC(C)(C)OC(=O)N1CCC(Oc2cc(-c3cnc(N)nc3C(F)(F)F)nc(N3CCOCC3)n2)CC1 [Compound 27] | < 1000 nM | < 1000 nM | < 1000 nM |  | 
15 | CC(C)(C)OC(=O)N1CCC(Oc2cc(-c3cnc(N)nc3N)nc(N3CCOCC3)n2)CC1 [Compound 28] | < 1000 nM | < 1000 nM | < 1000 nM |  | 
16 | CC(=O)N1CCC[C@@H](Oc2cc(-c3cnc(N)nc3N)nc(N3CCOCC3)n2)C1 [Compound 29] | < 1000 nM | < 1000 nM | < 1000 nM |  | 
17 | CC(=O)N1CCC(Oc2cc(-c3cnc(N)[nH]c3=O)nc(N3CCOCC3)n2)CC1 [Compound 30] | < 1000 nM | < 1000 nM | < 1000 nM |  | 
18 | COC(=O)N1CCC(Oc2cc(-c3cnc(N)[nH]c3=O)nc(N3CCOCC3)n2)CC1 [Compound 31] | < 1000 nM | < 1000 nM | < 1000 nM |  | 
19 | CC(C)OC(=O)N1CCC(Oc2cc(-c3cnc(N)[nH]c3=O)nc(N3CCOCC3)n2)CC1 [Compound 32] | < 1000 nM | < 1000 nM | < 1000 nM |  | 
20 | Nc1ncc(-c2cc(Nc3ccncc3)nc(N3CCOCC3)n2)c(C(F)(F)F)n1 [Compound 33] | < 1000 nM | < 1000 nM | < 1000 nM |  | 
21 | Nc1ncc(-c2cc(OC3CCN(C(=O)OCc4ccccc4)CC3)nc(N3CCOCC3)n2)c(=O)[nH]1 [Compound 34] | < 1000 nM | < 1000 nM | < 1000 nM |  | 
22 | CN1CCC(Oc2ccc(Nc3cc(-c4cnc(N)nc4)nc(N4CCOCC4)n3)cn2)C1 (stereo not drawn) [Compound 35] | < 1000 nM | < 1000 nM | < 1000 nM |  | 
23 | CN(C)CCOc1ccc(Nc2cc(-c3cnc(N)nc3)nc(N3CCOCC3)n2)cn1 [Compound 36] | < 1000 nM | < 1000 nM | < 1000 nM |  | 

Row | SMILES | EC50 ([1]; A2780 cells) | EC50 [2] | IC50 [3] | IC50 ([3]; Biological Method 1) | EC50 ([1]; A2780, Biological Method 2)
24 | CN1CCC(Oc2ccc(Nc3cc(-c4cnc(N)nc4)nc(N4CCOCC4)n3)cn2)CC1 [Compound 37] | < 1000 nM | < 1000 nM |  |  | 
25 | Nc1ncc(-c2cc(N3CCOCC3)nc(N3CCOCC3)n2)c(=O)[nH]1 [Compound 77] | < 1000 nM | < 1000 nM |  |  | 
26 | Nc1ncc(-c2cc(N3CCOCC3)nc(N3CCOCC3)n2)c(C(F)(F)F)n1 [Compound 85] | < 1000 nM | < 1000 nM |  |  | 
27 | Cc1nc(N)ncc1-c1cc(Nc2cnc3ccccc3c2)nc(N2CCOCC2)n1 [Compound 96] | < 1000 nM | < 1000 nM |  |  | 
28 | Nc1ncc(-c2cc(N3CCOCC3)nc(N3CCOCC3)n2)cn1 [Compound 100] | < 1000 nM | < 1000 nM |  |  | 
29 | Nc1ncc(-c2cc(Nc3ccc(Oc4ccccc4)nc3)nc(N3CCOCC3)n2)cn1 [Compound 107] | < 1000 nM | < 10000 nM |  |  | 
30 | Nc1cc(Cl)c(-c2cc(N3CCOCC3)nc(N3CCOCC3)n2)cn1 [Compound 114] | < 1000 nM | < 10000 nM |  |  | 
31 | Nc1ncc(-c2ccnc(N3CCOCC3)n2)cn1 [Compound 132] | < 1000 nM | < 10000 nM |  |  | 
32 | Nc1ncc(-c2cc(Nc3cnc4ccccc4c3)nc(N3CCOCC3)n2)c(N)n1 [Compound 147] | < 1000 nM | < 1000 nM |  |  | 
33 | N#Cc1cc(N)ncc1-c1cc(N2CCOCC2)nc(N2CCOCC2)n1 [Compound 162] | < 1000 nM | < 1000 nM |  |  | 
34 | Nc1cc(Cl)c(-c2cc(Nc3cnc4ccccc4c3)nc(N3CCOCC3)n2)cn1 [Compound 175] | < 1000 nM | < 1000 nM |  |  | 
35 | Nc1ncc(-c2cc(Nc3cnc4ccccc4c3)nc(N3CCOCC3)n2)c(C(F)(F)F)n1 [Compound 192] | < 1000 nM | < 1000 nM |  |  | 
36 | Nc1cc(C(F)(F)F)c(-c2cc(Nc3cnc4ccccc4c3)nc(N3CCOCC3)n2)cn1 [Compound 193] | < 1000 nM | < 1000 nM |  |  | 
37 | CN(C)CCOc1ccc(Nc2cc(-c3ccc(N)nc3)nc(N3CCOCC3)n2)cn1 [Compound 198] |  |  |  | < 1000 nM | < 1000 nM
38 | Nc1ncc(-c2cc(CNC(=O)OC3CCOC3)nc(N3CCOCC3)n2)c(N)n1 (stereo not drawn) [Compound 541] |  | < 25000 nM | < 1000 nM |  | 
39 | Nc1cc(C(F)(F)F)c(-c2cc(-c3ccccc3S(N)(=O)=O)nc(N3CCOCC3)n2)cn1 [Compound 543] |  | < 10000 nM | < 1000 nM |  | 
40 | CC(C)(C)NS(=O)(=O)c1ccccc1-c1cc(-c2cnc(N)cc2C(F)(F)F)nc(N2CCOCC2)n1 [Compound 544] |  | < 25000 nM | < 1000 nM |  | 
41 | Nc1ncc(-c2cc(N3CCOc4ccccc43)nc(N3CCOCC3)n2)c(C(F)(F)F)n1 [Compound 546] |  | < 10000 nM | < 1000 nM |  | 
42 | Cc1c(-c2cnc(N)nc2)nc(N2CCOCC2)nc1-c1cccc(S(C)(=O)=O)c1 [Compound 548] |  | < 10000 nM | < 1000 nM |  | 
43 | Cc1c(-c2ccc(S(C)(=O)=O)cc2)nc(N2CCOCC2)nc1-c1cnc(N)nc1 [Compound 549] |  | < 10000 nM | < 1000 nM |  | 
44 | Nc1ccc(-c2cc(N3CCOCC3)nc(N3CCOCC3)n2)c(=O)[nH]1 [Compound 551] |  | < 10000 nM | < 1000 nM |  | 
45 | Nc1cc(C(F)(F)F)c(-c2cc(Nc3nc(-c4ccccc4)cs3)nc(N3CCOCC3)n2)cn1 [Compound 554] |  | < 10000 nM | < 1000 nM |  | 
